Reference: patent US8410178B2, “CIS 3,4-dihydroxy-2-(3-methylbutanoyl)-5-(3-methylbutyl)-4-(4-methylpentanoyl)cyclopent-2-en-1-derivatives, substantially enantiomerically pure compositions and methods” (KinDex Therapeutics, LLC, priority 2010, dated 2013)

How the values were obtained:
[1] = target: T1, PPARα (Homo sapiens, UniProt Q07869); test: PPARα luciferase reporter assay; format: cell-based; conditions: reporter cells, 20 hours
T1 sequence (Q07869 1-468): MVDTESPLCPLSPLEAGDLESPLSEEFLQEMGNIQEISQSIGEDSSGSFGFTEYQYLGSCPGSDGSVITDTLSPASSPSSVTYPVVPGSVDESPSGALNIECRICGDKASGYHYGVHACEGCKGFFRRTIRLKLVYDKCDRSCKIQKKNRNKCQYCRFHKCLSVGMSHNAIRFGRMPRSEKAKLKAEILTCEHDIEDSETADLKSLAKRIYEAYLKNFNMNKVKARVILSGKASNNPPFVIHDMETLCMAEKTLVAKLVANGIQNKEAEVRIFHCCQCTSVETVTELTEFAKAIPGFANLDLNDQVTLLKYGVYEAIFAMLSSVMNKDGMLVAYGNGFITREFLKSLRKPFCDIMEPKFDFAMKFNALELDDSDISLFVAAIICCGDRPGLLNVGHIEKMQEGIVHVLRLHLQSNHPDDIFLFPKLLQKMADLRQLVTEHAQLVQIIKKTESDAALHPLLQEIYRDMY
Description: (§1) The functional effect of (+)-KDT501 on PPARα, PPARδ, and PPARγ activity was evaluated using a PPAR reporter assay (INDIGO Biosciences, PA). This assay utilizes non-human mammalian cells engineered to provide constitutive high level expression of PPARα, PPARδ, or PPARγ and containing a luciferase report gene specific to the appropriate PPAR. Following activation by agonist binding, PPAR induces expression of the luciferase reporter gene. Luciferase activity therefore provides a surrogate for measuring PPAR activity in agonist-treated cells.
(§2) Reporter cells were plated on a 96-well plate at 100 μL per well, and 100 μL of (+)-KDT501 at various final concentrations (25, 12.5, 6.25, 3.125, 1.56 and 0.78 μM) was added to each well. […] 0.1% DMSO was also used as a negative control for each assay. Plates are incubated for 20 hours in a humidified incubator at 37° C. and 5% CO2. After incubation, cell medium was discarded and the cells were treated with 100 μL of luciferase detection reagent for 15 minutes. Plates were analyzed using a luminometer (Victor2, Perkin Elmer). Average relative light unit (RLU) and standard deviation were analyzed using GraphPad Prism.

[2] = target: Human DAPK1 (Homo sapiens, UniProt P53355); test: DAPK1 activity, cell free kinase assay; format: biochemical; conditions: cell free assay
Description: The effect of (+)-KDT501 and (−)-KDT501 on death-associated protein kinase 1 (DAPK1) activity was evaluated.
Human DAPK1 was incubated with 8 mM MOPS, pH 7.0, 0.2 mM EDTA, 250 μM ZIP peptide substrate ([…]), 10 mM MgOAc, and [γ-^33P-ATP] (specific activity approximately 500 cpm/pmol, concentration as required). (+)-KDT501 or (−)-KDT501 at varying concentrations (100, 30, 10, 1, 0.3, 0.1, 0.03, 0.01 μM) were added to the reaction mixture. The reaction was initiated by addition of the MgATP mix. After incubation for 40 minutes at room temperature, the reaction was stopped by addition of 3% phosphoric acid solution. 10 μL of reaction mixture was spotted onto a P30 filtermat, washed three times for five minutes in 75 mM phosphoric acid and once in methanol prior, then dried and subjected to scintillation counting.

[3] = target: T2, angiotensin II receptor type II (AGTR2) (Homo sapiens, UniProt P50052); test: Competitive binding to AGTR2 ([125I]CGP 42112A); conditions: binding target AGTR2; competitor ligand Angiotensin-II
T2 sequence (P50052 1-363): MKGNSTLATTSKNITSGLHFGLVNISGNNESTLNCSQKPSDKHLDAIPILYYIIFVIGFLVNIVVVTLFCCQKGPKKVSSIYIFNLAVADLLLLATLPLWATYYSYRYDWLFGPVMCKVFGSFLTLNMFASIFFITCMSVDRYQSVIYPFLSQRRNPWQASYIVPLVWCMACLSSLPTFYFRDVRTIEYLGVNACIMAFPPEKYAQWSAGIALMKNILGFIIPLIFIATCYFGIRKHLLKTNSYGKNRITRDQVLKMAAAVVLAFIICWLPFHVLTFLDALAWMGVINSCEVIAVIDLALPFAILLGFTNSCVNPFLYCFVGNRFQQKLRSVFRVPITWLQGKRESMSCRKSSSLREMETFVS

[4] = target: T3, PPARγ (Homo sapiens, UniProt P37231); test: PPARγ luciferase reporter assay; format: cell-based
T3 sequence (P37231 1-505): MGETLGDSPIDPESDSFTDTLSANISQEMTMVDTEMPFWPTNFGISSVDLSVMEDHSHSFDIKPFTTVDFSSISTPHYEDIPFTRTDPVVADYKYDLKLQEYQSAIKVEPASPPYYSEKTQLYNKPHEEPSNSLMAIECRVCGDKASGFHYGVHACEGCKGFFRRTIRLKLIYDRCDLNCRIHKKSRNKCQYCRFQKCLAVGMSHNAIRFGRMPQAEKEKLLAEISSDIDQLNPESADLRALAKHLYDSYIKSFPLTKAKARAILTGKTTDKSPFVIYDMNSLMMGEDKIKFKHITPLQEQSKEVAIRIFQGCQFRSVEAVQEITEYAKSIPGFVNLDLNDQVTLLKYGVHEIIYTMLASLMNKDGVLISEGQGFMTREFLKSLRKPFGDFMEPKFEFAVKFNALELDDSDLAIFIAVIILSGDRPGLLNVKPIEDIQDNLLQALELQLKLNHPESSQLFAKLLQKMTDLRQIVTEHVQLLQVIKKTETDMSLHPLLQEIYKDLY
Description: as §1, §2
The PPAR activity assays were repeated as described above using both (+)-KDT501(12.5, 6.25, 3.125, 1.56, and 0.78 μM) and (−)-KDT501 (25, 12.5, 6.25, 3.125, 1.56, and 0.78 μM).

[5] = target: T4, peroxisome proliferator-activated receptor gamma (PPARγ) (Homo sapiens, UniProt P37231); test: Competitive binding to PPARγ ([3H]rosiglitazone)
T4 sequence (P37231 1-505): T3 sequence (P37231 1-505)

[6] = target: T5, PPARδ (Homo sapiens, UniProt Q03181); test: PPARδ luciferase reporter assay; format: cell-based; conditions: reporter cells, 20 hours
T5 sequence (Q03181 1-441): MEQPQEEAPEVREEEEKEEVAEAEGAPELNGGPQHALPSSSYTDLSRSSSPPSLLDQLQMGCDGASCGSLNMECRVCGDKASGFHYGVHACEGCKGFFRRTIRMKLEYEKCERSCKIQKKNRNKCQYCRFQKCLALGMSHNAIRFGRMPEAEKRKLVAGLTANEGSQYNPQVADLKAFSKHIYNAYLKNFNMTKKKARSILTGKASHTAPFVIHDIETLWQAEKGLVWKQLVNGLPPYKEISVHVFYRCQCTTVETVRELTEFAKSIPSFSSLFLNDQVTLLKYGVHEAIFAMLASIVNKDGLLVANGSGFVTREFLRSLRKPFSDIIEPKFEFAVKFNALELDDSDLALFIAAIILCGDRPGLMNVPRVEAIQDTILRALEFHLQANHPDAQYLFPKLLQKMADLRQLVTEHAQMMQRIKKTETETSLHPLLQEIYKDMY
Description: as §1, §2

Sequence of Human DAPK1 (P53355 whole entry): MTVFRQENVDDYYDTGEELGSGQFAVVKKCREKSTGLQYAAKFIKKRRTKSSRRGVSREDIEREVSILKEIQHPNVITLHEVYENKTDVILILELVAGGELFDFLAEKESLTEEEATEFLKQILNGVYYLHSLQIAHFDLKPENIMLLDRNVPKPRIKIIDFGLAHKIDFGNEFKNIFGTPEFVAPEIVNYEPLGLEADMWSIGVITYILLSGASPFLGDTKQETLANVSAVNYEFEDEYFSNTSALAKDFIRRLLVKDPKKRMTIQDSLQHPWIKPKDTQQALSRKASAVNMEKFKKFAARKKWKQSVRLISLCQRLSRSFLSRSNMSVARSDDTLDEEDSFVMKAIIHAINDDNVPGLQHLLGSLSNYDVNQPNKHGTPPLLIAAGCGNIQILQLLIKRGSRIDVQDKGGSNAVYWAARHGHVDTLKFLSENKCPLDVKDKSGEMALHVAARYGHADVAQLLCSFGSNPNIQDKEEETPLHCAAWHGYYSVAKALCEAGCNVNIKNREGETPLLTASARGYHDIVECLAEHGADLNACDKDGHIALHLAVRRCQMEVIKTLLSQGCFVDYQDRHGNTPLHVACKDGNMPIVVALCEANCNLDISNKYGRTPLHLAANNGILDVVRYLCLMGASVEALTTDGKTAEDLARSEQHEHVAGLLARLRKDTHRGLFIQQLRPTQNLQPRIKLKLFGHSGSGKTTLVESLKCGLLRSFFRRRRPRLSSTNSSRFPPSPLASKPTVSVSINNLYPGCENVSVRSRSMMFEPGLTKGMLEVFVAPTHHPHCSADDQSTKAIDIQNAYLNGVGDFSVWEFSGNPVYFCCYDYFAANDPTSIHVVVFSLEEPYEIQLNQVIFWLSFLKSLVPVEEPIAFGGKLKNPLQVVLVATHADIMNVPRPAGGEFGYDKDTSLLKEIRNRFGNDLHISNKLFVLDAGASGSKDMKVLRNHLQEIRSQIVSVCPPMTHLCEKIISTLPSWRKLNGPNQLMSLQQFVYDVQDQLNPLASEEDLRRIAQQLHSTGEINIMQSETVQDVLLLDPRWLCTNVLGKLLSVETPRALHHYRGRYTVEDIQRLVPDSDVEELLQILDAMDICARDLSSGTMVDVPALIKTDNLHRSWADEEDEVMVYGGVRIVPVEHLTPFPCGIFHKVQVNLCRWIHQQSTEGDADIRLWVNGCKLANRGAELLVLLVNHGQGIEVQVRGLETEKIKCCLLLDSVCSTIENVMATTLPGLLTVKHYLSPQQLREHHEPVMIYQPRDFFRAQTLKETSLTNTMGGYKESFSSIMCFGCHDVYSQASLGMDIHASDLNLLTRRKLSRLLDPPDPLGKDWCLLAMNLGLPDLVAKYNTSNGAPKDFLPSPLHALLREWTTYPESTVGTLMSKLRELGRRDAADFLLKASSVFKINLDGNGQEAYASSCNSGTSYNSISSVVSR

- PPARα activity [1]: little or no effect
- IC50 [2]: 40.9 µM
- IC50 [3]: 32 µM
- Ki [3]: 16 µM
- nH [3]: 0.9
- PPARγ reporter activity (RLU) ([4]; concentration of test compound 3.13 μM): 547 RLU
- PPARγ reporter activity (RLU) ([4]; concentration of test compound 6.25 μM): 972 RLU
- PPARγ reporter activity (RLU) ([4]; concentration of test compound 12.5 μM): 2407 RLU
- PPARγ reporter activity (RLU) ([4]; concentration of test compound 25 μM): 4244 RLU
- IC50 [5]: 30 µM
- Ki [5]: 16 µM
- nH ([5]; binding target PPARγ, competitor ligand Rosiglitazone): 1.1
- PPARδ activity [6]: little or no effect
SMILES: CC(C)CCC(=O)[C@]1(O)C(O)=C(C(=O)CC(C)C)C(=O)[C@H]1CCC(C)C [(−)-KDT501]
- PPARγ activity ([4]; reporter cells, 20 hours): increased PPARγ activity, but to a significantly lesser degree than (+)-KDT501
